Assay results: ChEMBL document CHEMBL1201862, “PubChem BioAssay data set” (2004)
Active and inactive are the calls of the source.

Legend:
Galanin receptor type 2 = biological target: T1, Galanin receptor type 2 (Homo sapiens, UniProt O43603); experiment: Dose Response cell-based high-throughput screening assay to identify antagonists of galanin receptor 2 (GALR2). [Related pubchem assays: 828, 866 ]; format: functional
T1 sequence (O43603 whole entry): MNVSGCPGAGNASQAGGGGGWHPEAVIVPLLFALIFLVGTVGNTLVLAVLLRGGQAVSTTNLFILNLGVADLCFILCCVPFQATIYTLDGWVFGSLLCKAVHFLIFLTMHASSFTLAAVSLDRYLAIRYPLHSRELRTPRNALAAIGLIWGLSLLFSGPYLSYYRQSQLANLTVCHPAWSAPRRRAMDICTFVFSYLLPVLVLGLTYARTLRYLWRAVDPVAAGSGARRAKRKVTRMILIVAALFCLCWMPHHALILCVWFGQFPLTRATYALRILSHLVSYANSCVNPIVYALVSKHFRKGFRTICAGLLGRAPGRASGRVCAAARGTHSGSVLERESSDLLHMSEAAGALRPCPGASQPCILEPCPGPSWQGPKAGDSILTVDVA

INS1 = experiment: INS-1E survival protection against cytokine death – cell-based, luminescence, retest, dose response (AID 449756); format: functional; settings: Rattus norvegicus;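 also: cell death triggered by IL-1 beta plus TNF-alpha plus IFN-gamma mixture; protective hits raise ATP signal compared with cytokine alone wells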
HEK293 [1] = experiment: inhibition of NOD1-driven NF-kB reporter – cell-based, luminescence, uHTS, primary screen (AID 1578); format: functional; settings: Homo sapiens
HEK293 [2] = experiment: cells; format: functional, cell-based; settings: Homo sapiens
[3] = HIV-1 AD8 envelope cell-cell fusion blockers – cherry-pick, dose response (AID 652062); format: functional, cell-based;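 also: luciferase signal from cell-cell fusion driven by HIV-1 clade B AD8 Env; potency is for inhibitors of fusion seen as a drop in luminescence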
[4] = biological target: Nucleotide-binding oligomerization domain-containing protein 2 (Homo sapiens, UniProt Q9HC29); experiment: inhibition of NOD2-driven NF-kB reporter – cell-based, luminescence, uHTS, HEK293 (AID 1566); format: functional
HEK293 [5] = experiment: NOD2 signaling inhibitors in MDP-stimulated cells, cell-based, uHTS, luminescence (AID 2001); format: functional; settings: Homo sapiens
HEK293 [6] = experiment: cells; format: functional, cell-based; settings: Homo sapiens; remark: listed apart in the source
HEK293 [7] = experiment: cells; format: functional, cell-based; settings: Homo sapiens; remark: listed apart in the source
cells [8] = format: functional, cell-based
[9] = HEK-293T viability loss after treatment – luminescence, T-cell screen hits, cytotoxicity control for TCR NF-kB inhibitor project, dose response (AID 489026); format: functional, cell-based;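 also: cells exposed to compound about 14 hours before the viability readout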
[10] = Luminescence-based dose response cell-based high throughput screening assay for cytotoxic compounds using the IEC-6 intestinal epithelial cell line. [Related pubchem assays: 1858 (Summary AID.), 1825 (Counterscreen.), 1907 (Confirmation screen.)]; format: functional
[11] = luciferase reporter signal reduction – luminescence, H4-C neuroglioblastoma cells, dose response (AID 2458); format: functional, cell-based;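 also: H4 neuroglioblastoma cells stably carrying a luciferase reporter gene fusion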
cells [12] = experiment: cells
[13] = luciferase reporter signal suppression in cells – H4 neuroglioma cells, luminescence, dose response (AID 1990); format: functional, cell-based
[14] = alpha-synuclein stem-loop translation blockers – luminescence, H4 neuroglioblastoma cells, dose confirmation, confirmation (AID 2454); format: functional, cell-based;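 also: H4 neuroglioblastoma cells carrying an alpha-synuclein 5'UTR luciferase reporter; potency for inhibition of the luciferase signal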
[15] = Trypanosoma cruzi growth suppression in host cells – NIH3T3 host cells, beta-gal luminescence, confirmation (AID 2044); format: functional, cell-based;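 also: intracellular parasites grown in NIH/3T3 mouse fibroblasts as host cells; luminescent beta-galactosidase reporter signal from transgenic T. cruzi replicating inside host cells; inhibitors lower the luminescence signal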
[16] = alpha-synuclein stem-loop luciferase translation blockers – H4 neuroglioma cells, luminescence, confirmation (AID 1988); format: functional, cell-based
[17] = Luminescence Cell-Based Dose Confirmation HTS to Identify Inhibitors of Polyadenylation.; format: functional
Cytochrome P450 2C19 = Cytochrome P450 2C19 (Homo sapiens, UniProt P33261); experiment: Cytochrome panel assay with activity outcomes. Panel member name: p450-cyp2c19 Compounds with AC50 equal or less than 10 uM are considered active; format: functional; settings: read-out: AC50
[18] = biological target: 5-hydroxytryptamine receptor 1A (Homo sapiens, UniProt P08908); format: functional
Estrogen receptor = biological target: T2, Estrogen receptor (Homo sapiens, UniProt P03372);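 also: potency for inhibiting coactivator peptide recruitment to the receptor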
T2 sequence (P03372 whole entry): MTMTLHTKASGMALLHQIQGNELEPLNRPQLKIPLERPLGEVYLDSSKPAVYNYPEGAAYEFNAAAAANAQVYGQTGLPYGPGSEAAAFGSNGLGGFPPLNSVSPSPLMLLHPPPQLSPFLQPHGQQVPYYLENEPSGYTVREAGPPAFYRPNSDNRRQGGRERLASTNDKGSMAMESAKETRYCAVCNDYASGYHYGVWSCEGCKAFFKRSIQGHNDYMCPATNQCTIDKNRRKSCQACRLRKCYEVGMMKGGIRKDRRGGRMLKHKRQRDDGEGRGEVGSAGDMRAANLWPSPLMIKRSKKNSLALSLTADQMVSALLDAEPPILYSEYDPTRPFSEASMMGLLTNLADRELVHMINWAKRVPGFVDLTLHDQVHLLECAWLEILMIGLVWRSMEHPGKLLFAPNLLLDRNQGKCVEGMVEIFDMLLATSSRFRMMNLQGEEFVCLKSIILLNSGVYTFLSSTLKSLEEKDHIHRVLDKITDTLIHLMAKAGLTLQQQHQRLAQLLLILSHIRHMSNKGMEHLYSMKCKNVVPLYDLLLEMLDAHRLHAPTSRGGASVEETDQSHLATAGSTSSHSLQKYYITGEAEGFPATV

14-3-3 protein gamma = 14-3-3 protein gamma (Homo sapiens, UniProt P61981); experiment: modulators of 14-3-3 gamma client binding – dose response (AID 711); format: functional
[19] = biological target: T3, Polyadenylate-binding protein 1 (Homo sapiens, UniProt P11940); experiment: MLLE binding blockers, Cy5 peptide tracer – biochemical, fluorescence polarization, Cy5-PAM2 peptide, secondary, miRNA deadenylation inhibitor project, dose response (AID 602260); format: functional; settings: read-out: IC50_Mean
Aminopeptidase N = biological target: T4, Aminopeptidase N (Plasmodium falciparum FcB1/Columbia, UniProt O96935); experiment: malaria alanyl aminopeptidase activity blockers – biochemical, fluorogenic H-Leu-NHMec substrate, 1536-well (AID 1445); set-up: species or system Plasmodium falciparum 3D7, 3D7
T4 sequence (O96935 whole entry): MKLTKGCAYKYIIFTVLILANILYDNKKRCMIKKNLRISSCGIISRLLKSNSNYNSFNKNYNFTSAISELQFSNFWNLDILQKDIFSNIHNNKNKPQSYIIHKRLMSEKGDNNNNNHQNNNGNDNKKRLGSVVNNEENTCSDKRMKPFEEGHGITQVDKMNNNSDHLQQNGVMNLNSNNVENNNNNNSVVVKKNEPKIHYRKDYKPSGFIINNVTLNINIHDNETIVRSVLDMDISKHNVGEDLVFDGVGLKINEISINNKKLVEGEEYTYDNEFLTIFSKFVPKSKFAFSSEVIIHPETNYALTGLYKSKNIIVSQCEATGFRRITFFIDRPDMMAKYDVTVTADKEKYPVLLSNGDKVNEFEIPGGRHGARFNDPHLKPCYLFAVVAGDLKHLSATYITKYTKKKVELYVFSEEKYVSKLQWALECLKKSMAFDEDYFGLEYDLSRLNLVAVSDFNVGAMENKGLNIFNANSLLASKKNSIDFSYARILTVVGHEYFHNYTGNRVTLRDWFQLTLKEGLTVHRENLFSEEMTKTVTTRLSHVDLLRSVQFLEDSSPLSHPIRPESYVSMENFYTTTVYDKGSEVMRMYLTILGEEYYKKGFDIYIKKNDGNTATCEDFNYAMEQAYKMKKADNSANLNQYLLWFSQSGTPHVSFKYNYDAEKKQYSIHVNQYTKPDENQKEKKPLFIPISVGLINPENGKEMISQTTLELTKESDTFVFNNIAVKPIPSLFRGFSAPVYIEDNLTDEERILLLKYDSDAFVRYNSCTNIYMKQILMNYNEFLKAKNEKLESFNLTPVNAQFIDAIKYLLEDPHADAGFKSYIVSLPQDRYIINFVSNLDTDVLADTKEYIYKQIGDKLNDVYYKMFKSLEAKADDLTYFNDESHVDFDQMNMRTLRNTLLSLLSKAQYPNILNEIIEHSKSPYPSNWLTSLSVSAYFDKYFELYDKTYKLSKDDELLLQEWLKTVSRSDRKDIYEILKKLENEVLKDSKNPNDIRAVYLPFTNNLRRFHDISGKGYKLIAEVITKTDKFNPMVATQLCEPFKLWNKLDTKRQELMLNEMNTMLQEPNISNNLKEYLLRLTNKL

[20] = biological target: T5, Zinc finger protein mex-5 (Caenorhabditis elegans, UniProt Q9XUB2); experiment: potency of MEX-5 RNA-binding blockers – biochemical, C. elegans, fluorescence polarization, dose response (AID 1960)
T5 sequence (Q9XUB2 whole entry): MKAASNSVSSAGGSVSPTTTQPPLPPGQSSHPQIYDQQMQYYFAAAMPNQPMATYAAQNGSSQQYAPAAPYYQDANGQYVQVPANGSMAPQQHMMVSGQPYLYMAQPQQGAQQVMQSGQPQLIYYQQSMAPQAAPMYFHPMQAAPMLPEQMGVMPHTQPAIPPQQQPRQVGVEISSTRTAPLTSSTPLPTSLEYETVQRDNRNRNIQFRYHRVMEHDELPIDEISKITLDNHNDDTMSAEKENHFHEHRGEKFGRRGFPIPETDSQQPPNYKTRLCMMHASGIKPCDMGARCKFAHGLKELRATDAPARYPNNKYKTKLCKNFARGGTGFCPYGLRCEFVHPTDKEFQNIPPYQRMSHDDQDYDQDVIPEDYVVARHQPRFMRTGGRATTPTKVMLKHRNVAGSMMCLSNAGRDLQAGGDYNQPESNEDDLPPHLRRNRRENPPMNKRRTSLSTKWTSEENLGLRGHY

[21] = biological target: T6, RNA-binding protein pos-1 (Caenorhabditis elegans, UniProt G5EF15); experiment: disruptors of C. elegans POS-1 RNA interaction – biochemical, fluorescence polarization, dose response (AID 1964);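 also: purified POS-1 fused to maltose binding protein made in E. coli; potency of compounds blocking POS-1 binding to fluorescent RNA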
T6 sequence (G5EF15 whole entry): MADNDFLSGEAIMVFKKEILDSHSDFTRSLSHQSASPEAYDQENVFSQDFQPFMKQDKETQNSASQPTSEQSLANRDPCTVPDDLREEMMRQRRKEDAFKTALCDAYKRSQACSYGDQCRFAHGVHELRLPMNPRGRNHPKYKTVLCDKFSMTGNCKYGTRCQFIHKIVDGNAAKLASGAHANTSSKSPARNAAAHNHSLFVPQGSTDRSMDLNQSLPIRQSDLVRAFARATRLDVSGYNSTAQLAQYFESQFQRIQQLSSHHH

Estrogen receptor beta = Estrogen receptor beta (Homo sapiens, UniProt Q92731); experiment: blockers of SRC-3 recruitment to ERβ – biochemical, ELISA, streptavidin-HRP readout, orthogonal assay, confirmation (AID 1060)
[22] = biological target: T3, Polyadenylate-binding protein 1; experiment: MLLE domain peptide-binding blockers, IC50 – biochemical, fluorescence polarization, FITC-PAM2 peptide, dose response (AID 602259); format: functional; settings: read-out: IC50_Mean
[23] = loss of viability in HepG2 cells – cell-based, CellTiter-Glo, cherry-picked, cytotoxicity control for Shn3 inhibitor project, dose response (AID 624134); format: functional
[24] = NIH3T3 cell viability loss – ATP luminescence, mouse fibroblasts, counter-screen, dose response (AID 2010); format: functional, cell-based;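 also: cells exposed to compound for about 90 hours before reading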
[25] = Luminescence Cell-Based Dose Retest to Confirm Inhibitors of Cancer Stem Cells. [Related pubchem assays (depositor defined):AID2717, AID2721]; format: functional, Homo sapiens; settings: Homo sapiens
[26] = non-specific 3'UTR reporter inhibition in Clone20-Shn3RL – cell-based, Renilla luciferase, cherry-picked, counter-screen for Shn3 inhibitor project, dose response (AID 624133); format: functional
[27] = reduction of Shn3 3'UTR-driven luciferase in osteoblasts – cell-based, Clone20 osteoblasts, firefly luciferase, cherry-picked, dose response (AID 624132); format: functional;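 also: firefly luciferase luminescence from reporter carrying the Shn3 3'UTR in osteoblasts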

Sequence of 5-hydroxytryptamine receptor 1A (P08908 whole entry): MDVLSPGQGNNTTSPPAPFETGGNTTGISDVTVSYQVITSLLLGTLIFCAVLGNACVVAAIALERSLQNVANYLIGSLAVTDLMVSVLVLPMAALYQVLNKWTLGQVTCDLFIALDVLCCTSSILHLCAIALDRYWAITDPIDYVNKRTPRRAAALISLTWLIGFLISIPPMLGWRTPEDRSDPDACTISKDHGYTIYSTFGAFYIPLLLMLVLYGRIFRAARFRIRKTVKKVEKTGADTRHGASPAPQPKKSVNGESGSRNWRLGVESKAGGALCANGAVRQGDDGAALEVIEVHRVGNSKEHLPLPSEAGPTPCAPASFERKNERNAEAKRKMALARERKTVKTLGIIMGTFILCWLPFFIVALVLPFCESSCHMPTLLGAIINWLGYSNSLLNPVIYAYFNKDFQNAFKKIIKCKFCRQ
T3 sequence (P11940 whole entry): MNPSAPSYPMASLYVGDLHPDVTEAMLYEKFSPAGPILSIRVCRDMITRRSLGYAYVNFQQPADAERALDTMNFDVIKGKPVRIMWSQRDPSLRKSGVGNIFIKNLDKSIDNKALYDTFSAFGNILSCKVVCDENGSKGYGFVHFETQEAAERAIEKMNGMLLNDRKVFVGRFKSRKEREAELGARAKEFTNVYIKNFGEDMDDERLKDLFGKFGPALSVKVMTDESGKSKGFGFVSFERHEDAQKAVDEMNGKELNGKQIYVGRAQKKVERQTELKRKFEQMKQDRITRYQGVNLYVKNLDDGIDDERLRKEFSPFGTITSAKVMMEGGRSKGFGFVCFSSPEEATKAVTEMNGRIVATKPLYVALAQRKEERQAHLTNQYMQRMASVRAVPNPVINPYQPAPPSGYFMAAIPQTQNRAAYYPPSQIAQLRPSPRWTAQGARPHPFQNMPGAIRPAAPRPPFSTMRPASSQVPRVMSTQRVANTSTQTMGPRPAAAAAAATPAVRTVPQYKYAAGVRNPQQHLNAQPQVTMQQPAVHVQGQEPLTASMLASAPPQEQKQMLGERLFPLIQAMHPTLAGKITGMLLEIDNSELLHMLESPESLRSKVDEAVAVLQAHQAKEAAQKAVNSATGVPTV
Sequence of Cytochrome P450 2C19 (P33261 whole entry): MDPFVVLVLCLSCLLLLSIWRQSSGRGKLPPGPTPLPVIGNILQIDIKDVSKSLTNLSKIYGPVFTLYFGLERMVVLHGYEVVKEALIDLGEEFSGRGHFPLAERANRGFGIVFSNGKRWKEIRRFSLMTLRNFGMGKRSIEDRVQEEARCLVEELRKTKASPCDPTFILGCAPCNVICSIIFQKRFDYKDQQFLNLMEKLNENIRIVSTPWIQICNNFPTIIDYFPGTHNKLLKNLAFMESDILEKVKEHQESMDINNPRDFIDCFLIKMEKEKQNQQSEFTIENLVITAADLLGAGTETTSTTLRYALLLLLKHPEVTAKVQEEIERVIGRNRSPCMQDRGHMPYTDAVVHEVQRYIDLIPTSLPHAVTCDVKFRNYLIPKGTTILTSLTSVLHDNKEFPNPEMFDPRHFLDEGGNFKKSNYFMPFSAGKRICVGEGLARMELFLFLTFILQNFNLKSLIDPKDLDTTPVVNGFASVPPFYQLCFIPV
Sequence of Estrogen receptor beta (Q92731 whole entry, the tested form may be a part): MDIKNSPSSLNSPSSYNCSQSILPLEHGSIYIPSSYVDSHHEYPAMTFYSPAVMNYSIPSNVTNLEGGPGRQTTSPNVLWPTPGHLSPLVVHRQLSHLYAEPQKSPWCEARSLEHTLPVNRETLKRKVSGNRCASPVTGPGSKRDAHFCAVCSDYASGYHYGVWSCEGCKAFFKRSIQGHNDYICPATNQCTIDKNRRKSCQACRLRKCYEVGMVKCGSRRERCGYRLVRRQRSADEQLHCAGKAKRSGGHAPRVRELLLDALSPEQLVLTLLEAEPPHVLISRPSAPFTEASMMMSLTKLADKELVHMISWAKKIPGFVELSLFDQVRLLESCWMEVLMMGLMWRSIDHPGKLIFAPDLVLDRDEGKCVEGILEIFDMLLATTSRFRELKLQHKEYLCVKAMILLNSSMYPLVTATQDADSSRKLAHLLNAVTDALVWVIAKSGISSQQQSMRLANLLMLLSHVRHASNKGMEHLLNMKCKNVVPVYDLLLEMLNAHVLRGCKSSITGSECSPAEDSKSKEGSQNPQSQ
Sequence of Nucleotide-binding oligomerization domain-containing protein 2 (Q9HC29 whole entry, the tested form may be a part): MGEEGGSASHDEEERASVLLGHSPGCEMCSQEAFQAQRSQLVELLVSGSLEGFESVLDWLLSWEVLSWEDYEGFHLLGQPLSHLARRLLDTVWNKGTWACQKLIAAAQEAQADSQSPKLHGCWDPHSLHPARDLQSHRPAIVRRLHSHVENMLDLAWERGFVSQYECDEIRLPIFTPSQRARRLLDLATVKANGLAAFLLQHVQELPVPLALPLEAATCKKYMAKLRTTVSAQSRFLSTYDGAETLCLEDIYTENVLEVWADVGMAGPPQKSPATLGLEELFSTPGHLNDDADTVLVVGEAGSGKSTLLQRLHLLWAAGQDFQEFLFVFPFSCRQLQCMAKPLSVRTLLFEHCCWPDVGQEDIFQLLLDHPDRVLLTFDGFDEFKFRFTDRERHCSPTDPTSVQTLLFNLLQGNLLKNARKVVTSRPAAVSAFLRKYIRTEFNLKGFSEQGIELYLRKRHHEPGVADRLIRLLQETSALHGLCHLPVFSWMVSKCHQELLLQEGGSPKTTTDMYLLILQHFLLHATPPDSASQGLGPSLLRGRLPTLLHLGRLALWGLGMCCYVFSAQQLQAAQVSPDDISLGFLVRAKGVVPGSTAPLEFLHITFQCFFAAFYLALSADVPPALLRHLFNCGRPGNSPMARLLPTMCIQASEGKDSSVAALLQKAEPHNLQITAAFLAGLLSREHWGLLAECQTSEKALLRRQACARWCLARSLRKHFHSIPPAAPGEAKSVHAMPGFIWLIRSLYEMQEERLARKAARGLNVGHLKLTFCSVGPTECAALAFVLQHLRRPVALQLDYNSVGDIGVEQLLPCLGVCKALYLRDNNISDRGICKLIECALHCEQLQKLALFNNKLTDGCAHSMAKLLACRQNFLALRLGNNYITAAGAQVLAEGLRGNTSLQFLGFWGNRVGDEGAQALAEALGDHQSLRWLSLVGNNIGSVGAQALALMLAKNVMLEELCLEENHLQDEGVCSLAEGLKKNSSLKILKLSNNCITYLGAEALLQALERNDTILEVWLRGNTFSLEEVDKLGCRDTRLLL
Sequence of 14-3-3 protein gamma (P61981 whole entry): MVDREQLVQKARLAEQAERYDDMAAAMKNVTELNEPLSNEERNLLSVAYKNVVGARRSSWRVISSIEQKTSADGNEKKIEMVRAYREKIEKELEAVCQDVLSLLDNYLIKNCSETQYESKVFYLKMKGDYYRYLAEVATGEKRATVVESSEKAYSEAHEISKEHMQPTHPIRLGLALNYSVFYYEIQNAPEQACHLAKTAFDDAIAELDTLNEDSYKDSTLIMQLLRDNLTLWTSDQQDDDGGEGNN

Cc1nc2ccc(NC(=O)c3cc(S(=O)(=O)N(C)c4ccccc4)ccc3Cl)cc2s1
IC50 (Galanin receptor type 2): > 42 µM (not active) | AC50 (INS1): 1.72 µM (active) | EC50 (HEK293 [1]): 2.55 µM (active) | IC50 (HEK293 [2]): 5.43 µM (active) | AC50 [3]: 2.17 µM (active) | EC50 [4]: > 20 µM (inactive) | IC50 (HEK293 [5]): 3.91 µM (inactive) | IC50 (HEK293 [6]): > 20 µM (inactive) | IC50 (HEK293 [7]): > 20 µM (inactive)

CC(=O)O[C@H]1C(=O)[C@@]2(C)C([C@H](OC(=O)c3ccccc3)[C@]3(O)C[C@H](OC(=O)[C@H](O)[C@@H](NC(=O)c4ccccc4)c4ccccc4)C(C)=C1C3(C)C)[C@]1(OC(C)=O)CO[C@@H]1C[C@H]2O (some centres undefined)
EC50 (cells [8]): 0.222 µM (active) | IC50 [9]: > 80 µM (inactive) | IC50 [10]: 0.0719 µM (active) | EC50 [11]: 0.268 µM (active) | EC50 (cells [12]): < 0.004 µM (active) | EC50 [13]: < 0.1 µM (active) | EC50 [14]: 0.279 µM (active) | EC50 [15]: < 0.1 µM (active) | EC50 [16]: < 0.1 µM (active)

Cn1cccc1Cc1nnc(SCC(=O)NCc2ccccc2Cl)n1-c1ccc(F)cc1
EC50 [17]: > 120 µM (not active)

CCCCN(CC)Cc1ccc(CNC(=O)Nc2ccc(OC)cc2OC)o1
AC50 (Cytochrome P450 2C19): 11.2 µM (inconclusive) | EC50 [18]: > 50 µM (not active)

O=C(NC(=S)Nc1ccc(NC(=O)c2ccco2)cc1)c1ccccc1
EC50 [17]: > 120 µM (not active)

Cc1cc(=O)oc2c(CN3CCC(C)CC3)c(O)c(Cl)cc12
IC50 (Estrogen receptor): 23.7 µM (active) | IC50 (14-3-3 protein gamma): 45.6 µM (not active) | IC50 [19]: > 66 µM (inactive) | IC50 (Aminopeptidase N): 32.7 µM (active) | EC50 [20]: > 300 µM (not active) | EC50 [21]: > 300 µM (not active) | IC50 (Estrogen receptor beta): 5.23 µM (not active) | IC50 [22]: 37.7 µM (inactive)

Cc1cc(Nc2cccc(Cl)c2)nc(NCc2ccccc2)n1
IC50 (Galanin receptor type 2): > 42 µM (not active) | AC50 (INS1): 3.21 µM (active) | AC50 [23]: 53 µM (active) | EC50 [24]: > 60 µM (inconclusive) | AC50 [25]: 5.51 µM (active) | EC50 [15]: 0.177 µM (active) | AC50 [26]: 6.41 µM (active) | AC50 [27]: 1.64 µM (active)

COc1ccc(N(CC(=O)NC2CCCC2)C(=O)Cn2nnc(-c3ccc(C)cc3)n2)cc1OC
EC50 [18]: > 50 µM (not active)
